Each block holds one compound with its values, some of them ahead of it.
Columns and labels:
[1] = RP, Waters ACQUITY UPLC BEH C18, 100 × 1 mm, 1.7 µm, 50 °C, 0.3 mL/min, estimated dead time 0.17 min; A: water + 10 mM ammonium bicarbonate; B: 10% water + 90% methanol + 10 mM ammonium bicarbonate; gradient (min/%B) 0/0 15/100 21/100 22/0 30/0; details: stereoisomer not certain
[2] = RP, Waters ACQUITY UPLC BEH C18, 100 × 1 mm, 1.7 µm, 50 °C, 0.3 mL/min, estimated dead time 0.17 min; A: water + 0.1% formic acid + 20 mM ammonium formate; B: methanol + 0.1% formic acid + 20 mM ammonium formate; gradient (min/%B) 0/0 15/100 21/100 22/0 30/0; details: stereoisomer not certain

Structure (SMILES): O=C1NC2C(=CC(O)C(O)C2O)c2cc3c(c(O)c21)OCO3 (configuration not stated) [Narciclasine]
- LC retention time [1]: 7.93 min
- LC retention time [2]: 7.92 min

Structure (SMILES): CCOc1cc(C(C)(C)C)ccc1C1COC(c2c(F)cccc2F)=N1 (configuration not stated) [Etoxazole]
- LC retention time [1]: 17.8 min
- LC retention time [2]: 17.4 min

Structure (SMILES): CCOCN(C(=O)CCl)c1c(C)cccc1CC [Acetochlor]
- LC retention time [1]: 15.3 min
- LC retention time [2]: 15 min

Structure (SMILES): CCC(=O)C(CC(C)N(C)C)(c1ccccc1)c1ccccc1 (configuration not stated) [Methadone]
- LC retention time [1]: 18.2 min
- LC retention time [2]: 13.1 min

Structure (SMILES): Clc1ccccc1-c1nnc(-c2ccccc2Cl)nn1 [Clofentezine (Apolo)]
- LC retention time [1]: 16.3 min
- LC retention time [2]: 15.9 min

Structure (SMILES): CN1C2CCC1C(C(=O)O)C(OC(=O)c1ccccc1)C2 (configuration not stated) [Benzoylecgonin]
- LC retention time [1]: 11.6 min
- LC retention time [2]: 11.5 min

Structure (SMILES): COC(C)C(O)(C(=O)OCC1=CCN2CCC(O)C12)C(C)C (configuration not stated) [Heliotrine]
- LC retention time [1]: 11.6 min
- LC retention time [2]: 8.05 min

Structure (SMILES): CON=C(C(=O)OC)c1ccccc1COc1ccccc1C [Kresoxim-methyl]
- LC retention time [1]: 15.8 min
- LC retention time [2]: 15.4 min

Structure (SMILES): O=C(O)c1ccc(Cl)cc1Cl [2,4-Dichlorobenzoic acid]
- LC retention time [1]: 7.64 min
- LC retention time [2]: 12.7 min

Structure (SMILES): CCCCCCCCCCSCCOCCO [2(2(decylsulfanyl)ethoxy)ethanol]
- LC retention time [1]: 18.1 min
- LC retention time [2]: 17.7 min

Structure (SMILES): COc1cc2c(c3oc4cccc(O)c4c(=O)c13)C1C=COC1O2 (configuration not stated) [Sterigmatocystin]
- LC retention time [1]: 15 min
- LC retention time [2]: 14.6 min

Structure (SMILES): Nc1c(Cl)c(Cl)nc(C(=O)O)c1Cl [Picloram]
- LC retention time [1]: 4.43 min
- LC retention time [2]: 7.28 min

Structure (SMILES): COc1ccc(-c2ccccc2)cc1NNC(=O)OC(C)C [Bifenazate]
- LC retention time [1]: 15 min
- LC retention time [2]: 14.7 min

Structure (SMILES): COc1nc(C)nc(NC(=O)NS(=O)(=O)c2ccccc2Cl)n1 [Chlorsulfuron]
- LC retention time [1]: 9.11 min
- LC retention time [2]: 12.3 min

Structure (SMILES): CNC(=O)N(C)c1nnc(C(C)(C)C)s1 [Tebuthiuron]
- LC retention time [1]: 12.1 min
- LC retention time [2]: 11.9 min

Structure (SMILES): C=C1C(=O)OC2CCN3CC=C(COC(=O)C(C)(O)C(C)C1C)C23 (configuration not stated) [Senecivernine]
- LC retention time [1]: 12.7 min
- LC retention time [2]: 8.55 min

Structure (SMILES): CC(=O)c1cc2c(cc1C)C(C)(C)C(C)C2C(C)C (configuration not stated) [Traseolide]
- LC retention time [1]: 18.2 min
- LC retention time [2]: 17.8 min

Structure (SMILES): CON=C(C(=O)O)c1ccccc1CON=C(C)c1cccc(C(F)(F)F)c1
- LC retention time [1]: 14.5 min
- LC retention time [2]: 15.6 min

Structure (SMILES): COP(=S)(OC)SCn1nnc2ccccc2c1=O [Azinphos methyl]
- LC retention time [1]: 13.6 min
- LC retention time [2]: 13.4 min

Structure (SMILES): CC(C)C1(C)N=C(c2nc3ccccc3cc2C(=O)O)NC1=O (configuration not stated) [Imazaquin]
- LC retention time [1]: 9.01 min
- LC retention time [2]: 11.8 min

Structure (SMILES): COP(=S)(S)OC [Dimethyldithiophosphate]
- LC retention time [1]: 2.81 min
- LC retention time [2]: 2.01 min

Structure (SMILES): O=C1C=CCC2C3CCCN4CCCC(CN12)C34 (configuration not stated) [Sophocarpine]
- LC retention time [1]: 12.8 min
- LC retention time [2]: 5.39 min

Structure (SMILES): O=C(Nc1ccccc1)Nc1ccccc1Cl [1-(2-CHLOROPHENYL)-3-PHENYLUREA]
- LC retention time [1]: 14.2 min
- LC retention time [2]: 13.9 min

Structure (SMILES): CC12CCC(=O)C=C1CCC1C2CCC2(C)C1CCC2(C)O (stereo not drawn) [17alpha-Methyltestosterone]
- LC retention time [1]: 15 min
- LC retention time [2]: 14.7 min

Structure (SMILES): O=NN1CCOCC1 [N-Nitrosomorpholine]
- LC retention time [1]: 3.78 min
- LC retention time [2]: 3.69 min

Structure (SMILES): OC(Cc1ccccc1Cl)(Cn1cncn1)C1(Cl)CC1 (configuration not stated) [Prothioconazole-desthio]
- LC retention time [1]: 15.3 min
- LC retention time [2]: 15 min

Structure (SMILES): CC=C1CC(C)C(C)(O)C(=O)OCC2=CC[N+]3([O-])CCC(OC1=O)C23 (configuration not stated) [Senecionine N-oxide]
- LC retention time [1]: 9.78 min
- LC retention time [2]: 8.82 min

Structure (SMILES): O=Cc1ccccc1Nc1ccccc1Cl [2-(2-(Chlorophenyl)amino)benzaldehyde]
- LC retention time [1]: 16 min
- LC retention time [2]: 15.7 min

Continued, values first:

- LC retention time [1]: 14.6 min
- LC retention time [2]: 14.2 min
Structure (SMILES): CCCc1nc2c(C)cc(-c3nc4ccccc4n3C)cc2n1Cc1ccc(-c2ccccc2C(=O)O)cc1 [Telmisartan]

- LC retention time [1]: 16.7 min
- LC retention time [2]: 13.9 min
Structure (SMILES): Clc1ccccc1C(c1ccccc1)(c1ccccc1)n1ccnc1 [Clotrimazole]

- LC retention time [1]: 10.9 min
- LC retention time [2]: 10.8 min
Structure (SMILES): CCCCOCCOCCO [Diethylene glycol monobutyl ether]

- LC retention time [1]: 7.74 min
- LC retention time [2]: 7.75 min
Structure (SMILES): Cc1c(C=O)c(=O)n(-c2ccccc2)n1C [4-Formyl-antipyrine]

- LC retention time [1]: 12.4 min
- LC retention time [2]: 9.64 min
Structure (SMILES): Cc1nccn1CC1CCc2c(c3ccccc3n2C)C1=O (configuration not stated) [Ondansetron]

- LC retention time [1]: 15.8 min
- LC retention time [2]: 14.1 min
Structure (SMILES): c1ccc2sc(NC3CCCCC3)nc2c1 [N-cyclohexyl-2-benzothiazole-amine]

- LC retention time [1]: 11.4 min
- LC retention time [2]: 8.5 min
Structure (SMILES): CCN1CCN(c2cc3c(cc2F)c(=O)c(C(=O)O)cn3C2CC2)CC1 [Enrofloxacin]

- LC retention time [1]: 8.56 min
- LC retention time [2]: 6.38 min
Structure (SMILES): CC(C)NCC(O)COc1ccc(CC(N)=O)cc1 (configuration not stated) [Atenolol]

- LC retention time [1]: 16.9 min
- LC retention time [2]: 14.3 min
Structure (SMILES): CCC1OC(=O)C(C)C(OC2CC(C)(OC)C(O)C(C)O2)C(C)C(OC2OC(C)CC(N(C)C)C2O)C(C)(O)CC(C)C(=NOCOCCOC)C(C)C(O)C1(C)O (configuration not stated) [Roxithromycin]

- LC retention time [1]: 19 min
- LC retention time [2]: 18.6 min
Structure (SMILES): CON=C1CC2(CC3CC(CC=C(C)CC(C)C=CC=C4COC5C(O)C(C)=CC(C(=O)O3)C45O)O2)OC(C(C)=CC(C)C)C1C (configuration not stated) [Moxidectin]

- LC retention time [1]: 11.2 min
- LC retention time [2]: 10.4 min
Structure (SMILES): COc1cc(Cl)c(OC)cc1N [4-Chloro-2,5-dimethoxyaniline]

- LC retention time [1]: 17.2 min
- LC retention time [2]: 17.2 min
Structure (SMILES): CCCCC(CC)COP(=O)(O)OCC(CC)CCCC (configuration not stated) [Bis(2-ethylhexyl)phosphate]

- LC retention time [1]: 6.78 min
- LC retention time [2]: 8.73 min
Structure (SMILES): O=c1ccc2ccc(O)cc2o1 [Umbelliferone]

- LC retention time [1]: 11.6 min
- LC retention time [2]: 11.4 min
Structure (SMILES): Nc1c(Cl)cnn(-c2ccccc2)c1=O [iso-Chloridazon]

- LC retention time [1]: 8.22 min
- LC retention time [2]: 9.59 min
Structure (SMILES): COc1cc2ccc(=O)oc2c(O)c1OC [Fraxidin]

- LC retention time [1]: 11 min
- LC retention time [2]: 13.8 min
Structure (SMILES): COc1ccc2cc(C(C)C(=O)O)ccc2c1 (configuration not stated) [Naproxen]

- LC retention time [1]: 12 min
- LC retention time [2]: 9.91 min
Structure (SMILES): CCNc1nc(NC(C)CC)[nH]c(=O)n1 (configuration not stated) [Sebuthylazine-2-hydroxy]

- LC retention time [1]: 6.19 min
- LC retention time [2]: 8.86 min
Structure (SMILES): COc1ncnc(NS(=O)(=O)c2ccc(N)cc2)c1OC [Sulfadoxine]

- LC retention time [1]: 9.54 min
- LC retention time [2]: 9.42 min
Structure (SMILES): CC(=O)OCC(COC(C)=O)OC(C)=O [Triacetin]

- LC retention time [1]: 16.1 min
- LC retention time [2]: 13.3 min
Structure (SMILES): CC(=O)N1CCN(c2ccc(OCC3COC(Cn4ccnc4)(c4ccc(Cl)cc4Cl)O3)cc2)CC1 (configuration not stated) [Ketoconazole]

- LC retention time [1]: 10.2 min
- LC retention time [2]: 7.51 min
Structure (SMILES): CC(C)NCC(O)COc1cccc2[nH]ccc12 (configuration not stated) [Pindolol]

- LC retention time [1]: 9.93 min
- LC retention time [2]: 9.79 min
Structure (SMILES): O=c1ccc2ccccc2o1 [Coumarin]

- LC retention time [1]: 15.9 min
- LC retention time [2]: 15.5 min
Structure (SMILES): O=C(c1ccccc1)C1CCCCC1 [Cyclohexylphenylketone]

- LC retention time [1]: 19.4 min
- LC retention time [2]: 18.9 min
Structure (SMILES): CCCCCCOC(=O)c1ccccc1C(=O)OCC(CC)CCCC (configuration not stated) [2-Ethylhexyl(hexyl)phthalate]

- LC retention time [1]: 10.1 min
- LC retention time [2]: 6.31 min
Structure (SMILES): N#CC1CCCN1C(=O)CNC12CC3CC(CC(O)(C3)C1)C2 (configuration not stated) [Vildagliptin]

- LC retention time [1]: 7.67 min
- LC retention time [2]: 8.34 min
Structure (SMILES): O=C(O)c1cn(C2CC2)c2cc(N3CCNCC3)c(F)cc2c1=O [Ciprofloxacin]

- LC retention time [1]: 7.37 min
- LC retention time [2]: 6.99 min
Structure (SMILES): COC(C)C(O)(C(=O)OCC1=CC[N+]2([O-])CCC(O)C12)C(C)(C)O (configuration not stated) [Europine N-oxide]

- LC retention time [1]: 14.5 min
- LC retention time [2]: 9.31 min
Structure (SMILES): NC(=O)C1(N2CCCCC2)CCN(CCCC(=O)c2ccc(F)cc2)CC1 [Pipamperone]

- LC retention time [1]: 17.1 min
- LC retention time [2]: 16.7 min
Structure (SMILES): CCCCCCCCCCCC(=O)NCC(C)O (configuration not stated) [Lauric isopropanolamide]

- LC retention time [1]: 4.75 min
- LC retention time [2]: 8.1 min
Structure (SMILES): CC(=O)Nc1ccc(N)cc1 [4'-Aminoacetanilide]

- LC retention time [1]: 11.5 min
- LC retention time [2]: 8.71 min
Structure (SMILES): Nc1ccc(Nc2ccccc2)cc1 [4-Aminodiphenylamine]

- LC retention time [1]: 18.7 min
- LC retention time [2]: 14 min
Structure (SMILES): CN(CC=CC#CC(C)(C)C)Cc1cccc2ccccc12 [Terbinafine]

- LC retention time [1]: 10.7 min
- LC retention time [2]: 13.7 min
Structure (SMILES): O=C(O)Cc1ccccc1Nc1c(Cl)cc(O)cc1Cl [4-Hydroxy-Diclofenac]

- LC retention time [1]: 3.99 min
- LC retention time [2]: 4.47 min
Structure (SMILES): CC(=O)Nc1c(I)c(NC(C)=O)c(I)c(C(=O)O)c1I [Diatrizoate]

- LC retention time [1]: 11.9 min
- LC retention time [2]: 13.8 min
Structure (SMILES): COc1nc(NC(=O)NS(=O)(=O)c2ccccc2C(F)(F)F)nc(C(F)(F)F)n1 [Tritosulfuron]

- LC retention time [1]: 9.4 min
- LC retention time [2]: 9.29 min
Structure (SMILES): Cc1cc(=O)oc2cc(N)ccc12 [7-Amino-4-methylcoumarin]

- LC retention time [1]: 16.9 min
- LC retention time [2]: 16.6 min
Structure (SMILES): CC1COC(=O)c2cc3c(cc21)C(C)(C)C(C)C3(C)C (configuration not stated) [Galaxolidone]

- LC retention time [1]: 7 min
- LC retention time [2]: 6.99 min
Structure (SMILES): O=C1CCCCCN1 [epsilon-Caprolactam]

Reference: the RepoRT retention time repository (doi:10.1021/acs.analchem.1c00972)
